Reference: patent publication US8222260B2, “Substituted 6-anilinopurine derivatives as inhibitors of cytokinin oxidase/dehydrogenase and preparations containing these derivatives” (Univerzita Palackego V Olomouci, priority 2007, dated 2012)

Key:
[1] = system: Human diploid fibroblasts BJ; experiment: Attachment frequency test (adherence of fibroblasts); format: cell-based; details: 0-25 μM, attached cells counted after 6 hours, BJ passage 19
Description: Attachment frequency test is one of the methods for evaluation of acute toxicity of compounds against adherent cells. The tested compound is added into the medium with a defined number of trypsinised cells and after certain time the number of attached cells is counted. Human diploid fibroblasts BJ (passage 19) and standard cultivation medium (DMEM with 5 g/l glucose, 2 mM glutamin, 100 U/ml penicillin, 100 μg/ml streptomycin and 10% fetal calf serum) were used. The attached cells were counted after 6 hours. The experiment was done in three repetitions. […] Thus the compound doesn't show acute toxicity against fibroblasts.

[2] = system: Human diploid fibroblasts HCA; experiment: Anti-aging activity: senescence-associated beta-galactosidase in human fibroblasts; format: cell-based
Description: In this example, effects of the compounds of this invention on the activity of a senescence biomarker senescence-associated β-galactosidase was studied. Human diploid fibroblasts HCA of various passage levels were used for this purpose. The tested compounds were added to the medium at each passage. After the incubation period, cells were washed with PBS and fixed with 2% formaldehyde and 0.2% glutaraldehyde in PBS. After another wash with PBS, they were incubated with the staining solution comprising potassium ferricyanide (5 mM), potassium ferrocyanide (5 mM), MgCl2 (2 mM), X-gal (5-bromo-4-chloro-3-indolyl-β-D-galactopyranoside) (1 mg/ml), in citric/phosphate buffer (pH 6.0) at 37° C. (without CO2) for at least 1 hour. Following the incubation period, the numbers of cells expressing senescence-associated β-galactosidase (blue cells) were counted using light microscope.

| Compound | Attachment percentage [1] | Senescent Cells (%) HCA passage 25 ([2]; passage 25, cells expressing senescence-associated beta-galactosidase) [%] | Senescent Cells (%) HCA passage 50 ([2]; passage 50, cells expressing senescence-associated beta-galactosidase) [%] | Senescent Cells (%) HCA passage 80 ([2]; passage 80, cells expressing senescence-associated beta-galactosidase) [%] |
| --- | --- | --- | --- | --- |
| Clc1nc(Nc2ccccc2)c2[nH]cnc2n1 [Compound 1, 2-Chloro-6-anilinopurine] | not significantly influenced | – | – | – |
| c1coc(CNc2ncnc3nc[nH]c23)c1 [Kinetin, 6-furfurylaminopurine, reference compound] | – | 3 | 5 | 38 |
